According to patent US20250002955A1, “Method for Promoting Production of Exopolysaccharide by Bifidobacterium Bacteria” (TOHOKU UNIVERSITY, priority 2021, published 2025):

Legend:
Assay type in all cases: cell-based
[1] = tested on: Bifidobacterium animalis subsp. lactis JCM10602 strain; assay: Induction of EPS production by L-fucose in JCM10602 strain; details: anaerobic, 37° C.; for amount of EPS produced, extracted with ethanol / amount of EPS produced, extracted with trichloracetic acid: 0.5% sugar in mMRS culture medium, 96 hours, culture supernatant
Protocol: In order to confirm whether the production of EPS is induced by L-fucose in other bacteria of the genus Bifidobacterium, the following test was carried out using the JCM10602 strain and the JCM1192 strain.
(§1) Note that the JCM10602 strain is Bifidobacterium animalis subsp. lactis (i.e., Bifidobacterium lactis), which is frequently used as a probiotic and is known to produce EPS at a high level, and the JCM1192 strain is a standard strain of Bifidobacterium breve, which is the same species as AT-APC-FucE1.
The JCM10602 strain was anaerobically cultured in a 0.5% Fuc mMRS culture medium and in a 0.5% Glu mMRS culture medium at 37° C. for 96 hours by the method described in Test 3 above.
When the EPS extracted from the culture supernatant was assayed, the amount of EPS produced in the culture medium using D-glucose (that is, the 0.5% Glu mMRS culture medium) was 132.97 mg/1000 mL (when extracted with trichloracetic acid) and 4.74 mg/1000 mL (when extracted with ethanol), whereas the amount of EPS produced in the culture medium using L-fucose (that is, the 0.5% Fuc mMRS culture medium) was 166.2 mg/1000 mL (when extracted with trichloracetic acid) and 13.33 mg/1000 mL (when extracted with ethanol).

[2] = tested on: Bifidobacterium breve AT-APC-FucE1 strain; assay: Influence of presence or absence of L-fucose in culture medium on EPS production amount by AT-APC-FucE1 strain; details: 0.5% sugar in mMRS culture medium, anaerobic, 37° C., 96 hours
Protocol: The 0.5% Glu mMRS culture medium was inoculated with the AT-APC-FucE1 strain, and pre-culturing was implemented anaerobically at 37° C. for 24 hours. An amount of 100 μL of the pre-cultured culture solution was inoculated into each of a 0.5% Fuc mMRS culture medium (mMRS liquid culture medium comprising 0.5 wt. % of L-fucose) and a 0.5% Glu mMRS culture medium, and then cultured anaerobically at 37° C. for 96 hours.
The amount of crude EPS extracted from the supernatant of each culture solution was approximately the same (13.33 mg/1000 mL). However, when the amount of protein in these crude EPS samples was measured, and the amount of protein was subtracted from the amount of crude EPS, the amount of EPS produced in the culture medium that used D-glucose (that is, the 0.5% Glu mMRS culture medium) was 9.34 mg/1000 mL, whereas the amount of EPS produced in the culture medium that used L-fucose (that is, the 0.5% Fuc mMRS culture medium) was 13.14 mg/1000 mL.

[3] = tested on: Bifidobacterium breve AT-APC-FucE1 strain; assay: Confirmation of EPS production through culturing of AT-APC-FucE1 strain (transmission electron microscope); details: 1% Fuc mMRS culture medium vs 1% Glu mMRS culture medium, anaerobic, 37° C., 12 hours, transmission electron microscope (FIGS. 4 and 5)
Excerpt: An mMRS liquid culture medium comprising 0.5 wt. % and an mMRS liquid culture medium comprising 1 wt. % of D-glucose (hereinafter, the respective mMRS liquid culture mediums are also referred to as a “0.5% Glu mMRS culture medium” and a “1% Glu mMRS culture medium”, respectively) (composition: 10 g/L of beef extract, 5 g/L of yeast extract, 2 g/L of ammonium citrate, 5 g/L of sodium acetate, 0.1 g/L of magnesium sulfate, 0.05 g/L of manganese sulfate, 2 g/L of dipotassium hydrogen phosphate, 0.5 g/L of L-cysteine hydrochloride, and 0.5% or 1% D-glucose) were prepared. The 0.5% Glu mMRS culture medium was inoculated with the AT-APC-FucE1 strain, and pre-culturing was implemented anaerobically at 37° C. for 24 hours.
The 1% Fuc mMRS culture medium was then inoculated with 100 μL of the pre-cultured culture solution, and anaerobic culturing was carried out at 37° C. The AT-APC-FucE1 strain was collected from the culture solution that had been cultured for 12 hours, after which the bacterial cells were washed with phosphate-buffered saline (PBS), and subsequently, the bacterial cells were immobilized on a membrane, and the EPS production by the bacterial cells was confirmed using a transmission electron microscope. […]

[4] = tested on: Bifidobacterium breve JCM1192 strain; assay: Induction of EPS production by L-fucose in JCM1192 strain; details: JCM1192, standard strain of Bifidobacterium breve
Protocol: as §1, with “In order to confirm whether the production of EPS is induced by L-fucose in other bacteria of the genus Bifidobacterium, the following test was carried out using the JCM10602 strain and the JCM1192 strain. Note” for “Note”

Compound | production of EPS (electron microscope observation) ([1]; 0.5% Fuc mMRS vs 0.5% Glu mMRS culture medium, 96 hours (FIG. 7)) | amount of EPS produced, extracted with ethanol [1] [mg/1000 mL] | amount of EPS produced, extracted with trichloracetic acid [1] [mg/1000 mL] | amount of EPS produced (amount of protein subtracted from amount of crude EPS) [2] [mg/1000 mL] | amount of crude EPS extracted from the supernatant of culture solution [2] [mg/1000 mL] | EPS production by the bacterial cells [3] | induction of EPS production [4]
C[C@H](O)[C@@H](O)[C@@H](O)[C@H](O)C=O [L-fucose] | improved | 13.33 | 166.2 | 13.14 | ~13.33 | remarkably promoted | significant production induction by L-fucose was not confirmed
O=C[C@H](O)[C@@H](O)[C@H](O)[C@H](O)CO [D-glucose, reference compound] |  | 4.74 | 132.97 | 9.34 | ~13.33 |  | 
